Source: the supplement of paper PMC10307832

Columns and labels:
Assay in all cases: relative viability (nuclei count vs DMSO), 5 days (fraction); higher = more cells survive
Ibrutinib + AZD7762 = compound: C=CC(=O)N1CCC[C@@H](n2nc(-c3ccc(Oc4ccccc4)cc3)c3c(N)ncnc32)C1 [Ibrutinib] + NC(=O)Nc1cc(-c2cccc(F)c2)sc1C(=O)N[C@H]1CCCNC1 [AZD7762] (partner 0.2 µM)
Procedure, shortened: (§1)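 Lung cancer cell lines were seeded in 1536-well plates and dosed by pin tool the next day, with either a single drug or a fixed anchor-drug dose combined with five library-drug doses (not always all listed) spaced in √10 steps. Five days later, one step fixed the cells and stained their nuclei (final 0.05% Triton X-100, 1% formaldehyde, 1 ug/ml Hoechst), and nuclei were counted on 4× images. Relative viability is the nuclei count in treated wells divided by the count in vehicle wells, and each value is the median of duplicate plates.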

Ibrutinib + Vorinostat = compound: C=CC(=O)N1CCC[C@@H](n2nc(-c3ccc(Oc4ccccc4)cc3)c3c(N)ncnc32)C1 [Ibrutinib] + O=C(CCCCCCC(=O)Nc1ccccc1)NO [Vorinostat] (partner 1 µM)
Procedure, shortened: as §1

Ibrutinib + Olaparib = compound: C=CC(=O)N1CCC[C@@H](n2nc(-c3ccc(Oc4ccccc4)cc3)c3c(N)ncnc32)C1 [Ibrutinib] + O=C(c1cc(Cc2n[nH]c(=O)c3ccccc23)ccc1F)N1CCN(C(=O)C2CC2)CC1 [Olaparib] (partner 8 µM)
Procedure, shortened: as §1

BMX-IN-1 + Vorinostat = compound: C=CC(=O)Nc1cc(-n2c(=O)ccc3cnc4ccc(-c5ccc(NS(C)(=O)=O)cc5)cc4c32)ccc1C [BMX-IN-1] + O=C(CCCCCCC(=O)Nc1ccccc1)NO [Vorinostat] (partner 1 µM)
Procedure, shortened: as §1

Row | Cell Line | relative viability (Ibrutinib + AZD7762; first compound 0.005 µM) | relative viability (Ibrutinib + AZD7762; first compound 0.01581 µM) | relative viability (Ibrutinib + AZD7762; first compound 0.05 µM) | relative viability (Ibrutinib + AZD7762; first compound 0.1581 µM) | relative viability (Ibrutinib + AZD7762; first compound 0.5 µM) | relative viability (Ibrutinib + Vorinostat; first compound 0.005 µM) | relative viability (Ibrutinib + Vorinostat; first compound 0.01581 µM) | relative viability (Ibrutinib + Vorinostat; first compound 0.05 µM) | relative viability (Ibrutinib + Vorinostat; first compound 0.1581 µM) | relative viability (Ibrutinib + Vorinostat; first compound 0.5 µM) | relative viability (Ibrutinib + Olaparib; first compound 0.005 µM) | relative viability (Ibrutinib + Olaparib; first compound 0.01581 µM) | relative viability (Ibrutinib + Olaparib; first compound 0.05 µM) | relative viability (Ibrutinib + Olaparib; first compound 0.1581 µM) | relative viability (Ibrutinib + Olaparib; first compound 0.5 µM) | relative viability (BMX-IN-1 + Vorinostat; first compound 0.02 µM) | relative viability (BMX-IN-1 + Vorinostat; first compound 0.2 µM) | relative viability (BMX-IN-1 + Vorinostat; first compound 0.6325 µM) | relative viability (BMX-IN-1 + Vorinostat; first compound 2 µM)
1 | NCI-H2085 | 0.906 | 0.926 | 0.919 | 0.926 | 0.729 | 0.85 | 0.708 | 0.74 | 0.62 | 0.695 | 0.764 | 0.735 | 0.736 | 0.749 | 0.748 | 0.816 | 0.771 | 0.821 | 0.831
2 | HCC-78 |  | 0.732 | 0.251 | 0.452 | 0.592 |  | 0.403 | 0.405 | 0.446 | 0.388 |  | 0.773 | 0.716 | 0.87 | 0.679 | 0.383 | 0.438 | 0.431 | 0.41
3 | NCI-H647 | 0.413 | 0.534 | 0.529 | 0.3 | 0.497 | 0.569 | 0.472 | 0.695 | 0.645 | 0.67 | 0.638 | 0.387 | 0.62 | 0.57 | 0.637 | 0.709 | 0.725 | 0.663 | 0.495
4 | NCI-H1299 |  |  |  |  |  |  |  |  |  |  | 1 | 0.964 | 0.978 | 0.98 | 0.924 |  |  |  | 
5 | LU99A | 0.258 | 0.357 | 0.338 | 0.438 | 0.288 | 0.369 | 0.512 | 0.486 | 0.564 | 0.439 | 0.254 | 0.272 | 0.285 | 0.291 | 0.25 | 0.501 | 0.421 | 0.669 | 0.612
6 | A549 |  |  |  |  |  |  |  |  |  |  |  | 0.35 | 0.279 | 0.326 | 0.21 |  |  |  | 
7 | HARA | 0.495 | 0.449 | 0.602 | 0.318 | 0.408 | 0.606 | 0.482 | 0.663 | 0.64 | 0.553 | 0.96 | 0.712 | 0.778 | 0.763 | 0.384 | 0.507 | 0.549 | 0.446 | 0.506
8 | NCI-H1944 | 0.388 | 0.455 | 0.409 | 0.448 | 0.422 | 0.551 | 0.47 | 0.517 | 0.47 | 0.467 | 0.411 | 0.404 | 0.413 | 0.387 | 0.359 | 0.519 | 0.659 | 0.598 | 0.578
9 | LCLC-103H | 0.829 | 0.706 | 0.733 | 0.835 | 0.745 | 0.776 | 0.878 | 0.777 | 0.782 | 0.754 | 0.769 | 0.744 |  | 0.739 | 0.758 | 0.724 | 0.823 | 0.882 | 0.842
10 | NCI-H1792 |  | 0.693 | 0.6 | 0.636 | 0.515 |  |  |  |  |  |  | 0.506 | 0.402 | 0.353 | 0.379 |  |  |  | 
11 | Calu-6 |  |  |  |  |  |  |  |  |  |  | 0.673 | 0.582 | 0.576 | 0.599 | 0.589 |  |  |  | 
12 | SW 900 | 0.472 | 0.565 | 0.597 | 0.513 | 0.512 | 0.343 | 0.43 | 0.488 | 0.4 | 0.527 | 0.886 | 0.694 | 0.832 | 1.02 | 0.752 | 0.659 | 0.548 | 0.678 | 0.47
13 | LOU-NH91 | 0.684 | 0.701 | 0.717 | 0.801 | 0.754 | 0.818 | 0.782 | 0.749 | 0.88 | 0.684 | 0.836 | 0.751 | 0.798 | 0.931 | 0.692 |  | 0.939 | 1.05 | 0.915
14 | HCC-366 | 0.329 | 0.233 | 0.247 | 0.347 | 0.303 | 0.396 | 0.387 | 0.306 | 0.443 | 0.404 | 0.401 | 0.33 | 0.357 | 0.403 | 0.381 | 0.791 | 0.342 | 0.373 | 0.33
15 | CAL-12T | 0.701 | 0.69 | 0.544 | 0.616 | 0.766 | 0.617 | 0.623 | 0.464 | 0.841 | 0.621 | 0.665 | 0.677 | 0.658 | 0.818 | 0.506 | 1.11 | 0.951 | 0.756 | 0.812
16 | NCI-H1355 |  | 0.768 | 0.846 | 0.9 | 0.72 |  | 0.626 |  | 0.688 | 0.549 |  | 0.664 | 0.77 | 0.73 | 0.661 | 0.705 | 0.706 | 0.697 | 0.76
17 | ABC-1 | 0.904 | 0.863 | 0.807 | 0.759 | 0.695 | 0.795 | 1.05 |  |  | 1.63 | 0.85 | 0.774 |  |  | 0.844 | 1.34 | 1.6 | 1.39 | 1.21
18 | NCI-H2405 | 0.778 | 0.65 |  |  | 0.829 | 0.913 | 1.12 |  |  | 1.03 | 0.877 | 0.877 |  |  | 0.953 | 1.05 | 1.13 | 1.16 | 0.955
19 | NCI-H1648 | 0.697 | 0.66 | 0.673 | 0.762 | 0.865 | 0.423 | 0.441 | 0.402 | 0.31 | 0.343 | 0.626 | 0.552 | 0.653 | 0.766 | 0.481 | 0.522 | 1 | 0.3 | 0.503
20 | NCI-H650 | 1.02 | 0.858 | 0.94 | 1.15 | 1.02 | 0.36 | 0.389 | 0.413 | 0.578 | 0.45 | 0.423 | 0.432 | 0.385 | 0.506 | 0.459 | 0.475 | 0.52 | 0.48 | 0.438
21 | NCI-H2228 |  |  |  |  |  | 0.696 | 0.486 | 0.569 | 0.502 | 0.648 | 0.774 | 0.601 | 0.776 | 1.08 | 0.715 | 0.938 | 0.884 | 0.531 | 0.561
